Reference: ChEMBL document CHEMBL5244236, “Antitumor activity and structure-activity relationship of heparanase inhibitors: Recent advances” (Eur J Med Chem, 2020)
Blank lines part the entries; values can stand above or below the compound they belong to.

How the values were obtained:
[1] = molecular target: T1, Heparanase (Homo sapiens, UniProt Q9Y251); assay: Inhibition of human HPSE assessed as residual amount of heparin using porcine heparin as substrate preincubated for 5 mins followed by substrate addition and measured after 15 mins by spectrophotometric analysis
T1 sequence (Q9Y251 whole entry): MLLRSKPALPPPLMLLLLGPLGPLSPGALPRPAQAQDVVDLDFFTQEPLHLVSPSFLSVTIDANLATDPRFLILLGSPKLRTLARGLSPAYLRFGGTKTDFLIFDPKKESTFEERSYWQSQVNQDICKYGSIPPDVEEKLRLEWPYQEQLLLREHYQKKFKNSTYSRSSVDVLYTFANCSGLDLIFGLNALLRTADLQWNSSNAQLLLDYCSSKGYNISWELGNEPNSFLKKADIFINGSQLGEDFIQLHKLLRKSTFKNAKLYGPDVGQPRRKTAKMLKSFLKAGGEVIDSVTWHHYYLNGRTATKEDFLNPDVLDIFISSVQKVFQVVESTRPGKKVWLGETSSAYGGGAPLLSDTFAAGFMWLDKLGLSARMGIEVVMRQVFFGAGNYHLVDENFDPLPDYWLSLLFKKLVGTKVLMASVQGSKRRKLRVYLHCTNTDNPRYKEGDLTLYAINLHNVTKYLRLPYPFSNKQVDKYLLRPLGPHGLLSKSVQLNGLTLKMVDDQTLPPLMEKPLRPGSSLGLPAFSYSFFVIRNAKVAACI

[2] = system: B16-F10; assay: Inhibition of cell migration in mouse B16-F10 cells by wound healing assay
[3] = system: HepG2; assay: Anti-invasive activity against human HepG2 assessed as inhibition of cell invasion incubated for 48 hrs by transwell assay; format: functional, cell-based; settings: HepG2, 48 h
[4] = Antimigratory activity against mouse Lewis lung carcinoma cell line assessed as inhibition of cell migration incubated for 24 hrs by Wound healing assay; format: functional, cell-based
[5] = system: HepG2; assay: Antimigratory activity against human HepG2 assessed as inhibition of cell migration incubated for 48 hrs by Wound healing assay; format: functional, cell-based; settings: HepG2, 48 h
[6] = Anti-invasive activity against mouse Lewis lung carcinoma cell line assessed as inhibition of cell invasion incubated for 24 hrs by transwell assay; format: functional, cell-based
[7] = Antiproliferative activity against mouse Lewis lung carcinoma cell line assessed as reduction in cell proliferation by MTT assay; format: functional, cell-based
[8] = system: HepG2; assay: Antiproliferative activity against human HepG2 assessed as reduction in cell proliferation by MTT assay; format: functional, cell-based
[9] = molecular target: T1, Heparanase; assay: Inhibition of HPSE (unknown origin)
[10] = Antiangiogenic activity in bFGF-stimulated human microvascular endothelial cells assessed as inhibition of cell growth incubated for 72 hrs; format: functional, cell-based, Cardiac microvascular endothelial cell
[11] = Antiangiogenic activity in VEGF-stimulated human endothelial cells assessed as inhibition of cell growth and measured after 11 days by immunohistochemical staining based analysis; settings: 264 h
[12] = system: HT-1080; assay: Anti-invasive activity against human HT-1080 cells assessed as inhibition of cell invasive
[13] = system: HT-1080; assay: Antimigratory activity against human HT-1080 cells assessed as inhibition of cell migration

SMILES: CCCCCCCCCCCCCCCc1cc(O[C@@H]2O[C@H](C(=O)O)[C@@H](O)[C@H](O)[C@H]2O)cc(O)c1C(=O)Oc1cc(C)c(C(=O)O)c(O)c1
IC50 [1]: 3 µM
IC50 [2]: 15 µM

SMILES: CCCCCCCCCCCCCCCC(=O)C1=C(OC(C)C)[C@@H](CO)OC1=O
IC50 [9]: > 100 µM

SMILES: Cc1ccc(C(=O)Nc2ccc(S(=O)(=O)O)c3cc(S(=O)(=O)O)cc(S(=O)(=O)O)c23)cc1NC(=O)c1cccc(NC(=O)Nc2cccc(C(=O)Nc3cc(C(=O)Nc4ccc(S(=O)(=O)O)c5cc(S(=O)(=O)O)cc(S(=O)(=O)O)c45)ccc3C)c2)c1 [SURAMIN]
IC50 [10]: 0.538 µM

SMILES: CCCCCCCCCCCCCCCc1cc(O[C@@H]2O[C@H](C(=O)OC)[C@@H](O)[C@H](O)[C@H]2O)cc(O)c1C(=O)Oc1cc(C)c(C(=O)O)c(O)c1
IC50 [2]: 30 µM

SMILES: O=C(O)c1ccc2c(c1)C(=O)N(c1cccc(-c3nc4ccccc4o3)c1)C2=O
IC50 [11]: 40 µM

SMILES: CCCCCCCCCCCCCCCC(=O)C1=C(OC)[C@@H](CO)OC1=O
IC50 [9]: > 100 µM

Second part, led by results:

IC50 [3]: 5 µM
IC50 [4]: 5 µM
IC50 [5]: 5 µM
IC50 [6]: 5 µM
IC50 [8]: 8.3 µM
SMILES: Oc1c(I)cc(I)cc1-c1nn2c(-c3ccccc3)nnc2s1
IC50 [7]: 11.9 µM

IC50 [12]: 3 µM
IC50 [13]: 3 µM
SMILES: CCCCCCCCCCCCCCCC(=O)C1=C(OCc2ccccc2)[C@@H](CO)OC1=O
